This passage reports IC50 results from US12421225B2, “Heteroaromatic amide derivative and medicament containing the same” (KAKEN PHARMACEUTICAL CO., LTD., priority 2018, dated 2025).

human Nav1.7, sequence (Q15858 whole entry): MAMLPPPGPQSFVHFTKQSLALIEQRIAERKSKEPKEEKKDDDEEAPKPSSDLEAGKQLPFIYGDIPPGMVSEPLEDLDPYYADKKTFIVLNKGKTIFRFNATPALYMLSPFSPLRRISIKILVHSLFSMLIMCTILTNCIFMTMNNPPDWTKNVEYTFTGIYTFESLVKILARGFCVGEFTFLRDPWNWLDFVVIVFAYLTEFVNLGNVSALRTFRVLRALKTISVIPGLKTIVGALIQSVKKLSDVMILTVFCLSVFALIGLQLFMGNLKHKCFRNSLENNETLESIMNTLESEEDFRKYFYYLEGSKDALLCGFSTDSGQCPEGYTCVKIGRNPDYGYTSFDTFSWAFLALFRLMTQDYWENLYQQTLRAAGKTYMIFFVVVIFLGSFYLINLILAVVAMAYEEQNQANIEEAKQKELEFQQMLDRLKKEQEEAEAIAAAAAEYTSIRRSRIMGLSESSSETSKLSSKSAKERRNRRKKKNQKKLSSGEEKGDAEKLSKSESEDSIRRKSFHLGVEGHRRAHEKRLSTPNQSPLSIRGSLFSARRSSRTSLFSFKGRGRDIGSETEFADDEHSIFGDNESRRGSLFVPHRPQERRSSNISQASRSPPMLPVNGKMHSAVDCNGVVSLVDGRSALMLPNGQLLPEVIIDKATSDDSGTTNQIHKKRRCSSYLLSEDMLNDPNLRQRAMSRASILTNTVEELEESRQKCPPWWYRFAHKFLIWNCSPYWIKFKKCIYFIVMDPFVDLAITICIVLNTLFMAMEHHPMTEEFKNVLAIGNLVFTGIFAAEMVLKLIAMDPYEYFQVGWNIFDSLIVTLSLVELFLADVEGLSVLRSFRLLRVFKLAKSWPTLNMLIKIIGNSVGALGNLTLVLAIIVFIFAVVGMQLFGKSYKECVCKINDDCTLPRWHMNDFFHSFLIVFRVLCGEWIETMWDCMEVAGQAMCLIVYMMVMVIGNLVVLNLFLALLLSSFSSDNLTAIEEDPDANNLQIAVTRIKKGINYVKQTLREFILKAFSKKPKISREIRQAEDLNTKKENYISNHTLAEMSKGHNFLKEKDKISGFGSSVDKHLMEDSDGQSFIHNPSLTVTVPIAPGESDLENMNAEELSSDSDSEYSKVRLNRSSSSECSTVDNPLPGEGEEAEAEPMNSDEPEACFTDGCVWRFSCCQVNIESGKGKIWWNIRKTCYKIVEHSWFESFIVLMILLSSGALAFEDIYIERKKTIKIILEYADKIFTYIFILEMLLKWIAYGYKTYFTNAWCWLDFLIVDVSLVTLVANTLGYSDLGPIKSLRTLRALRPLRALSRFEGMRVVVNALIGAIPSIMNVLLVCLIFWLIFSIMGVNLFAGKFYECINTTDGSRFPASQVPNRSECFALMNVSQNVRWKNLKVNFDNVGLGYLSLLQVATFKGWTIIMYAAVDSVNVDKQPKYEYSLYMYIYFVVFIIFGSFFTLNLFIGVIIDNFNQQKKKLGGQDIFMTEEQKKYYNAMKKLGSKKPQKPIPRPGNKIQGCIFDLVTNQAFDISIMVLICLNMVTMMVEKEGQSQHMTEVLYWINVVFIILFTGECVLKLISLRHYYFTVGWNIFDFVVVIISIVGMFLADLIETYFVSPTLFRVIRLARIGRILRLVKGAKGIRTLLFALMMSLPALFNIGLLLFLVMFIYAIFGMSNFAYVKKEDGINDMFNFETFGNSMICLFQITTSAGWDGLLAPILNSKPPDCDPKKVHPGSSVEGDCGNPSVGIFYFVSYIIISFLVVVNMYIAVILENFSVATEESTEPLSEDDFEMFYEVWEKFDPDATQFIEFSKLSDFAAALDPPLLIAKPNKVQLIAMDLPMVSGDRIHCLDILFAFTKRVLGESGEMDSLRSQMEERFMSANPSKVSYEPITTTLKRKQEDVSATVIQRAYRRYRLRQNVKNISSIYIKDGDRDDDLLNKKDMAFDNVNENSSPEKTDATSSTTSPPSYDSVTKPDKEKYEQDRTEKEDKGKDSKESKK
human Nav1.7, sequence (Q07699 19-218 partner): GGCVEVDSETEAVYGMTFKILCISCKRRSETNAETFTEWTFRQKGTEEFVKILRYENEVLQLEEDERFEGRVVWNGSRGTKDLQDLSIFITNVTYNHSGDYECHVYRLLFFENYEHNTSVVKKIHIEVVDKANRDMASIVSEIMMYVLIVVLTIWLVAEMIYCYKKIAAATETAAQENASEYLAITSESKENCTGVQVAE

One experiment concerns the target human Nav1.7 (Homo sapiens (Human), UniProt Q15858). Put plainly: Human Nav1.7 inhibitory activity evaluation (automated patch clamp QPatch16X, HEK293A cells stably expressing human Nav1.7 and human Navβ1). It counts as cell-based. The note with it: HEK293A cells stably expressing human Nav1.7 and human Navβ1, automated patch clamp QPatch16X. A digest of the protocol: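 IC50 calculated from the concentration-response of inward current evoked by the second −10 mV, 50 ms depolarisation, which follows a 15 s conditioning step at roughly 30-40% inactivation and a 100 ms −120 mV interval. Cells: HEK293A expressing human Nav1.7/Navβ1, automated patch clamp, room temperature, 0.1% DMSO final.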
(In patch-clamp work, channel activity is measured electrically.)
As usually defined, the IC50 is the concentration that gives 50% inhibition. High values mean lower potency, low ones higher potency. For `CN1Cc2nc(C(=O)N[C@H]3COc4ccccc4C3)cn2CC1c1ccc(F)c(F)c1` (stereo partly drawn) [Example 45], the IC50 is under 10000 nM. Turning to `O=C(N[C@H]1COc2ccccc2C1)c1cn2c(n1)CCC(C1CCCC1)C2` (stereo partly drawn) [Example 24], the IC50 was under 1000 nM.

Regarding `COc1ccc2c(c1)CC(NC(=O)c1cn3c(n1)CCC(C(F)(F)F)C3)CO2` (stereo not drawn) [Example 13], the IC50 is under 10000 nM. On the same count and under the same terms, the figure for `CN1Cc2nc(C(=O)N[C@H]3COc4ccccc4C3)cn2CC1CCc1ccc(F)cc1` (stereo partly drawn) [Example 54] is under 10000 nM; for `N#Cc1ccc2c(c1)C[C@@H](NC(=O)c1cc3n(n1)CCC(COCc1ccccc1)O3)CO2` (stereo partly drawn) [Example 99] it is under 1000 nM.

Staying with this experiment, now noted: human Nav1.7, automated patch clamp.
`O=C(N[C@H]1COc2ccc(-c3cnccn3)cc2C1)c1cc2n(n1)CCC(COCC1(C(F)(F)F)CC1)O2` (stereo partly drawn) [Example 435] came in with a 50% inhibitory concentration (IC50) of under 1000 nM. `O=C(N[C@H]1COc2ccc(C(F)(F)F)cc2C1)c1cc2n(n1)CCC(COCC1(F)CC1)O2` (stereo partly drawn) [Example 533]: the half-inhibitory concentration (IC50) is under 1000 nM. For the compound `O=C(N[C@H]1COc2ccc(COCC(F)(F)F)cc2C1)c1cc2n(n1)CCC(CN1CCC(F)(F)C1)O2` (single isomer, unassigned) [154 (isomer A)], the IC50 was under 10000 nM. As to `N#Cc1ccc2c(c1)C[C@@H](NC(=O)c1cc3n(n1)CCN(CCc1ccc(F)cc1)C3)CO2` [Example 269], the IC50 was under 1000 nM. The compound `O=C(N[C@H]1COc2ccc(CCOC(F)(F)F)cc2C1)c1cc2n(n1)CC(CCN1CC(F)(F)C1)O2` (stereo partly drawn) [Example 239] displayed a concentration for half-maximal inhibition (IC50) of under 1000 nM. Same read-out and setting: in the case of `N#Cc1ccc2c(c1)C[C@@H](NC(=O)c1cc3n(n1)CC(CC1CCOCC1)O3)CO2` (stereo partly drawn) [Example 565] it was under 1000 nM; in that of `O=C(N[C@H]1COc2ccc(C(F)(F)F)cc2C1O)c1cc2n(n1)CC(CCOCC(F)(F)F)O2` (single isomer, unassigned) [600 (isomer A)], under 10000 nM; in that of `N#Cc1ccc2c(c1)C[C@@H](NC(=O)c1cc3n(n1)CC(CCOC(F)(F)F)O3)CO2` (single isomer, unassigned) [209 (isomer A)], under 10000 nM. Same read-out and setting: the figure for `N#Cc1ccc2c(c1)C[C@@H](NC(=O)c1nc3n(c1-c1cccc(Cl)n1)CCOC3)CO2` [Example 341] is under 1000 nM. Turning to `COC1c2cc(C(F)(F)F)ccc2OC[C@@H]1NC(=O)c1cc2n(n1)CC(COCC(F)(F)F)O2` (stereo partly drawn) [Example 569], the IC50 was under 1000 nM. `CN(C)CCOCc1ccc2c(c1)C[C@@H](NC(=O)c1cc3n(n1)CCC(c1ccccc1F)O3)CO2` (stereo partly drawn) [Example 369] came in with an IC50 of under 10000 nM.

`CCOc1ncccc1C1CCn2nc(C(=O)N[C@H]3COc4ccc(C#N)cc4C3)cc2O1` (stereo partly drawn) [Example 372] had an IC50 of under 1000 nM. Still for that read-out and setting: in the case of `O=C(N[C@H]1COc2ccc(C(F)(F)F)cc2C1F)c1cc2n(n1)CCN(C1CCOC1)C2` (stereo partly drawn) [Example 670] it was under 1000 nM; in that of `CN(C1CCc2nc(C(=O)N[C@H]3COc4ccccc4C3)cn2C1)S(=O)(=O)c1ccccc1` (stereo partly drawn) [Example 322], under 10000 nM.

The compound `N#Cc1ccc2c(c1)C[C@@H](NC(=O)c1cc3n(n1)CCC(C(F)(F)F)CO3)CO2` (stereo partly drawn) [Example 483] gave an IC50 of under 10000 nM. `N#Cc1ccc2c(c1)C[C@@H](NC(=O)c1cc3n(n1)CCN(C1(CC(F)(F)F)CC1)C3)CO2` [Example 503]: the 50% inhibitory concentration (IC50) was under 10000 nM.

Compound `O=C(N[C@H]1COc2ccc(CC(F)(F)F)cc2C1)c1cc2n(n1)CC(CCN1CCC(F)(F)C1)O2` (single isomer, unassigned) [241 (isomer A)] showed a 50% inhibitory concentration (IC50) of under 1000 nM. In turn, `O=C(N[C@H]1COc2ccc(CC(F)F)cc2C1)c1cc2n(n1)CCC(C(F)(F)F)CO2` (stereo partly drawn) [Example 633] registered a half-inhibitory concentration (IC50) of under 1000 nM.

`O=C(N[C@H]1COc2ccc(C(F)(F)F)cc2C1O)c1cc2n(n1)CCC(OCCOCC(F)(F)F)CO2` (single isomer, unassigned) [Example 681] displayed a 50% inhibitory concentration (IC50) of under 10000 nM.

In turn, `O=C(N[C@H]1COc2ccccc2C1)c1nc2n(c1-c1ccccc1)CC(C(F)(F)F)CC2` (stereo partly drawn) [Example 299] came in with a half-inhibitory concentration (IC50) of under 1000 nM. `O=C(N[C@H]1COc2ccc(C(F)(F)F)cc2C1)c1nn2c(c1-c1cccc(CO)n1)COCC2` [Example 519] yielded an IC50 of under 10000 nM. For the compound `COC1c2cc(C(F)(F)F)ccc2OC[C@@H]1NC(=O)c1cc2n(n1)CC(CCOCC(F)(F)F)O2` (stereo partly drawn) [Example 621], the IC50 was under 1000 nM. `O=C(N[C@H]1COc2ccc(CC(F)F)cc2C1)c1cc2n(n1)CC(CCOC1CCC1)O2` (stereo partly drawn) [Example 471] displayed an IC50 of under 1000 nM. The same measure, in the same setting: in the case of `O=C(N[C@H]1COc2ccc(C(F)(F)F)cc2C1F)c1cc2n(n1)CCN(CCOCC(F)F)C2` (stereo partly drawn) [Example 678] it was under 1000 nM; in that of `N#Cc1ccc2c(c1)C[C@@H](NC(=O)c1cc3n(n1)CCC1(CCC1)O3)CO2` [Example 180], under 10000 nM. `O=C(N[C@H]1COc2ccc(C(F)(F)F)cc2C1O)c1cc2n(n1)CC(CCOCC1CC1)O2` (single isomer, unassigned) [636 (isomer A)] had an IC50 of under 1000 nM. On to `O=C(N[C@H]1COc2ccc(CC(F)F)cc2C1)c1cc2n(n1)CC(COC(F)(F)F)O2` (single isomer, unassigned) [198 (isomer A)], for which the IC50 was under 10000 nM. Same read-out and setting: in the case of `O=C(N[C@H]1COc2ccc(Cl)cc2C1)c1cc2n(n1)CCC(C1CCOCC1)O2` (stereo partly drawn) [Example 584] it was under 1000 nM; in that of `O=C(N[C@H]1COc2ccc(CCOC(F)(F)F)cc2C1)c1cc2n(n1)CC(CCN1CC(F)(F)C1)O2` (single isomer, unassigned) [240 (isomer A)], under 10000 nM. For `O=C(N[C@H]1COc2ccc(CCOC(F)F)cc2C1)c1cc2n(n1)CC(CCN1CC(F)(F)C1)O2` (stereo partly drawn) [Example 237], the concentration for half-maximal inhibition (IC50) was under 1000 nM.

The compound `O=C(N[C@H]1COc2ccc(C(F)(F)F)cc2C1F)c1cc2n(n1)CCN(CCOCC1CC1)C2` (stereo partly drawn) [Example 654] displayed an IC50 of under 1000 nM. `N#Cc1ccc2c(c1)C[C@@H](NC(=O)c1cc3n(n1)CC(CCOCC1(C(F)(F)F)CC1)O3)CO2` (stereo partly drawn) [Example 465] displayed a 50% inhibitory concentration (IC50) of under 1000 nM.

For `O=C(NC1COc2ccc(F)c(F)c2C1)c1cc2n(n1)CC(CCOCC1CC1)O2` (stereo not drawn) [Example 639], the IC50 was under 1000 nM. The same measure, in the same setting: in the case of `O=C(N[C@H]1COc2ccc(C(F)(F)F)cc2C1O)c1cc2n(n1)CCC(C(F)F)O2` (single isomer, unassigned) [534 (isomer B)] it was under 10000 nM; in that of `O=C(N[C@H]1COc2ccc(Cl)cc2C1)c1cc2n(n1)CCN(CCOc1ccccn1)C2` [Example 274], under 10000 nM.

As for `O=C(N[C@H]1COc2ccc(COCC(F)(F)F)cc2C1)c1cc2n(n1)CCN(CCOCC(F)(F)F)C2` [Example 667], the IC50 is under 1000 nM. In turn, `N#CC1(COCC2CCn3nc(C(=O)N[C@H]4COc5ccc(C(F)(F)F)cc5C4)cc3O2)CC1` (stereo partly drawn) [Example 553] showed an IC50 of under 10000 nM. `O=C(N[C@H]1COc2ccc(C(F)(F)F)cc2C1O)c1cc2n(n1)CC(CCCOCC(F)F)O2` (stereo partly drawn) [Example 607] yielded a half-maximal inhibitory concentration (IC50) of under 1000 nM. Regarding `Cc1c(C(=O)N[C@H]2COc3ccc(Cl)cc3C2)nn2c1OC(C)(C)C2` [Example 446], the 50% inhibitory concentration (IC50) is under 10000 nM. Consider `O=C(N[C@H]1COc2ccc(Cl)cc2C1)c1cc2n(n1)CCC(C#CC1CC1)O2` (stereo partly drawn) [Example 406], for which the IC50 was under 1000 nM. On the same count and under the same terms, in the case of `O=C(NC1COc2ccc(F)c(F)c2C1)c1cc2n(n1)CC(CCCOCC(F)(F)F)O2` (stereo not drawn) [Example 628] it was under 1000 nM. Take `Cc1cccc(-c2c(C(=O)N[C@H]3COc4ccc(C(F)(F)F)cc4C3)nn3c2NCCC3)n1` [Example 524]: the IC50 was under 10000 nM. For `O=C(N[C@H]1COc2ccc(C(F)(F)F)cc2C1)c1cc2n(n1)CC(CCN1CCC(F)(F)CC1)O2` (single isomer, unassigned) [242 (isomer A)], the IC50 was under 1000 nM.

In the case of `COc1cccc(-c2c(C(=O)N[C@H]3COc4ccc(Cl)cc4C3)nn3c2CCCC3)n1` [Example 348], the half-maximal inhibitory concentration (IC50) was under 1000 nM.

The compound `Cc1cnc(-c2ccc3c(c2)C[C@@H](NC(=O)c2cc4n(n2)CC(COCC(F)(F)F)O4)CO3)cn1` (single isomer, unassigned) [194 (isomer A)] showed an IC50 of under 10000 nM. Turning to `C=Cc1cccc2c1CC(NC(=O)c1cn3c(n1)CCC(C(F)(F)F)C3)CO2` (stereo not drawn) [Example 293], the IC50 was under 10000 nM.

In the case of `O=C(N[C@H]1COc2ccc(C(F)(F)F)cc2C1)c1nn2c(c1-c1cccc(F)n1)COCC2` [Example 513], the half-maximal inhibitory concentration (IC50) is under 1000 nM. `O=C(N[C@H]1COc2ccc(COCC(F)(F)F)cc2C1)c1cc2n(n1)CCN(CCC1CC1)C2` [Example 505] registered an IC50 of under 1000 nM. The same measure, in the same setting: in the case of `O=C(N[C@H]1COc2ccc(C(F)(F)F)cc2C1)c1cc2n(n1)CCC(C1CCOC1)O2` (stereo partly drawn) [Example 612] it was under 10000 nM. The compound `O=C(N[C@H]1COc2ccc(COCC(F)(F)F)cc2C1)c1cc2n(n1)CCC(C(F)(F)F)CO2` (stereo partly drawn) [Example 632] came in with a half-maximal inhibitory concentration (IC50) of under 1000 nM. On to `O=C(N[C@H]1COc2ccc(C(F)(F)F)cc2C1O)c1cc2n(n1)CC(CCCOCC(F)(F)F)O2` (stereo partly drawn) [Example 592], for which the concentration for half-maximal inhibition (IC50) is under 10000 nM. Same read-out and setting: in the case of `N#Cc1ccc2c(c1)C[C@@H](NC(=O)c1cc3n(n1)CCC(CSCC(F)(F)F)O3)CO2` (stereo partly drawn) [Example 423] it was under 1000 nM; in that of `O=C(N[C@H]1COc2ccc(C(F)(F)F)cc2C1)c1nn2c(c1-c1cccc(C(O)C(F)(F)F)n1)COCC2` (stereo partly drawn) [Example 527], under 1000 nM; in that of `O=C(N[C@H]1COc2ccc(C(F)(F)F)cc2C1O)c1cc2n(n1)CC(CCOCC(F)(F)F)O2` (stereo partly drawn) [Example 588], under 1000 nM. In turn, `CCC(F)(CC)C1CCc2nc(C(=O)N[C@H]3COc4ccccc4C3)cn2C1` (stereo partly drawn) [Example 319] registered an IC50 of under 10000 nM.

`O=C(N[C@H]1COc2ccc(CC(F)(F)F)cc2C1)c1cc2n(n1)CC(CCOCC(F)F)O2` (stereo partly drawn) [Example 479] gave a half-maximal inhibitory concentration (IC50) of under 1000 nM. Regarding `O=C(N[C@H]1COc2ccc(-c3cnccn3)cc2C1)c1cc2n(n1)CC(CCOC1CCC1)O2` (stereo partly drawn) [Example 474], the 50% inhibitory concentration (IC50) was under 1000 nM. On the same count and under the same terms, in the case of `N#Cc1ccc2c(c1)C[C@@H](NC(=O)c1cc3n(n1)CCC(C1CCOCC1)O3)CO2` (stereo partly drawn) [Example 585] it was under 10000 nM.
